The experiment deals with T1, CFTR (Homo sapiens, UniProt P13569, DEL508-508).
T1 construct: Primary CF airway epithelial cells were obtained from the UNC Cystic Fibrosis Tissue Procurement and Cell Culture Core; host or cells: primary CF airway epithelial cells
The experiment is described as follows: Equivalent current assay in Primary CF airway epithelial cells (NAUC). Type of experiment: cell-based. The following applies: 24 h, normalized to VX809 (3 μM) positive control; for Nauc @ 3 μM: 3 μM test compound; for Nauc @ 10 μM: 10 μM test compound. In short, it runs like this:
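Primary CF airway epithelia differentiated ≥4 weeks at air-liquid interface, treated basolaterally 24 h at 37 °C with test compounds in combination with VX809, 0.1% DMSO vehicle. Equivalent current recorded after 5 μM benzamil, 10 μM forskolin plus 1 μM VX770, then CFTR-172/bumetanide 20 μM; vehicle-subtracted AUC normalized to 3 μM VX809 (NAUC), median of n≥4, sigmoid fit for EC50.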

Each structure is given as a SMILES string.

T1 sequence (P13569 with tags, fused parts or gaps DEL508-508): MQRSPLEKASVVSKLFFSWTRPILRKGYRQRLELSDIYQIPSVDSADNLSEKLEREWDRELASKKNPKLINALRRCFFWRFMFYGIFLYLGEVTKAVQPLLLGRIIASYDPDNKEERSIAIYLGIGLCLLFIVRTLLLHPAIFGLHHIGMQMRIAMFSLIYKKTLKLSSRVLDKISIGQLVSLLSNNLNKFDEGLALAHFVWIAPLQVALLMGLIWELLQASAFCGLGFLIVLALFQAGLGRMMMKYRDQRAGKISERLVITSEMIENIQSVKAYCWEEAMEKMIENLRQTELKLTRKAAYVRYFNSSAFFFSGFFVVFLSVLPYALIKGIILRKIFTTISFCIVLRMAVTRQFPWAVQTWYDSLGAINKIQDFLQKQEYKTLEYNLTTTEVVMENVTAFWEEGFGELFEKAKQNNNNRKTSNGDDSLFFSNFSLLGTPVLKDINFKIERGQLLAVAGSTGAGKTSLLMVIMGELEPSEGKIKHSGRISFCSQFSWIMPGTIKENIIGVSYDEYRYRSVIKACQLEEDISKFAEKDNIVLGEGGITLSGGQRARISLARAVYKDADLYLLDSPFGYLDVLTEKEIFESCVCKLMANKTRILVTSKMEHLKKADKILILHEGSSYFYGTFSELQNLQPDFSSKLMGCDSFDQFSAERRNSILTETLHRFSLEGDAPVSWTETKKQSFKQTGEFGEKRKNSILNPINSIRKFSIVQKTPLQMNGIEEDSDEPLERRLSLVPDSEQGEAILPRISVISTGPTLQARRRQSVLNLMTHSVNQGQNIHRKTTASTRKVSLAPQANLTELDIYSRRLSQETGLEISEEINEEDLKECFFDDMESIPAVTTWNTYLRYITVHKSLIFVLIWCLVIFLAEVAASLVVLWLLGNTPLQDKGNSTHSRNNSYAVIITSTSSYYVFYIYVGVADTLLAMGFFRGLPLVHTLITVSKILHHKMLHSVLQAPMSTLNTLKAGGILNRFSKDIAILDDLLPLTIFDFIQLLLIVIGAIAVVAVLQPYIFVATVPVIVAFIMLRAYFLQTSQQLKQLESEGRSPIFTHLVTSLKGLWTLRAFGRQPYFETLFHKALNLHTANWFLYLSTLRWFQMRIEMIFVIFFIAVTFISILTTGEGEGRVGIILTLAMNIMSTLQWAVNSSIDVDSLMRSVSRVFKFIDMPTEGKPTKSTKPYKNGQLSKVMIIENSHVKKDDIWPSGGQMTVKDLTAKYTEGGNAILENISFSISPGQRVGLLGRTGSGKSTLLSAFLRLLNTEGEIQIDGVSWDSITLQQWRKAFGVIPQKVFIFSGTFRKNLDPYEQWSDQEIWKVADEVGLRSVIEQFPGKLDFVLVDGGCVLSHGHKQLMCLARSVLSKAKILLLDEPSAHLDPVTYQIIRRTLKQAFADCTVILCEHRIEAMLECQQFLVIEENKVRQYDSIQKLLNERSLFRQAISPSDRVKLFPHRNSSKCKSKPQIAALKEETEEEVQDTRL

Take `O=C1C2C3C[C@H](Cl)CN3C3(C(=O)Nc4c(Cl)cc(Cl)cc43)C2C(=O)N1c1cc(Cl)cc(Cl)n1` (single isomer, unassigned) [Example 108]: the “Nauc @ 3 μM” value was “+++ (NAUC “+++” refers to an observed NAUC >170% of positive control)” and the “Nauc @ 10 μM” value is listed as “++ (NAUC “++” refers to an observed NAUC 170-140% of positive control)”.
In the same order, the values of `O=C1C2C3CC(F)(F)CN3C3(C(=O)Nc4c(Cl)cc(Cl)cc43)C2C(=O)N1c1cc(Cl)cc(Cl)n1` (single isomer, unassigned) [Example 220] are “+++ (NAUC “+++” refers to an observed NAUC >170% of positive control)” and “+++ (NAUC “+++” refers to an observed NAUC >170% of positive control)”.
In the same order, the values of `O=C1C2C3CCCN3C3(C(=O)Nc4c(Cl)cc(Cl)cc43)C2C(=O)N1c1cc(Br)cc(Br)c1` (stereo not drawn) [Example 27] are “++ (NAUC “++” refers to an observed NAUC 170-140% of positive control)” and “++ (NAUC “++” refers to an observed NAUC 170-140% of positive control)”.
In the same order, the values of `COc1cc(Cl)cc(N2C(=O)C3C4CC(C)(C)CN4C4(C(=O)Nc5c(Cl)cc(Cl)cc54)C3C2=O)c1` (stereo not drawn) [Example 127] are “++ (NAUC “++” refers to an observed NAUC 170-140% of positive control)” and “+ (NAUC “+” refers to an observed NAUC <140% of positive control)”.
On to `CC1CC2C3C(=O)N(c4cc(Cl)cc(Cl)c4)C(=O)C3C3(C(=O)Nc4c(Cl)cc(Cl)cc43)N2C1` (stereo not drawn) [Example 71], for which the “Nauc @ 3 μM” value is reported as “+ (NAUC “+” refers to an observed NAUC <140% of positive control)” and the “Nauc @ 10 μM” value was “+++ (NAUC “+++” refers to an observed NAUC >170% of positive control)”.
As for `COC1(OC)CC2C3C(=O)N(c4cc(Cl)cc(Cl)c4)C(=O)C3C3(C(=O)Nc4c(Cl)cc(Cl)cc43)N2C1` (stereo not drawn) [Example 167], the “Nauc @ 3 μM” value was “+ (NAUC “+” refers to an observed NAUC <140% of positive control)” and the “Nauc @ 10 μM” value is given as “++ (NAUC “++” refers to an observed NAUC 170-140% of positive control)”.
Consider `COc1c(Cl)cc(N2C(=O)C3C4CC(C)(C)CN4C4(C(=O)Nc5c(Cl)cc(Cl)cc54)C3C2=O)cc1Cl` (single isomer, unassigned) [Example 140], for which the “Nauc @ 3 μM” value is on record as “+++ (NAUC “+++” refers to an observed NAUC >170% of positive control)” and the “Nauc @ 10 μM” value is given as “+++ (NAUC “+++” refers to an observed NAUC >170% of positive control)”.
For the compound `O=C1C2C3CC(=C(F)F)CN3C3(C(=O)Nc4c(Cl)cc(Cl)cc43)C2C(=O)N1c1cc(Cl)cc(Cl)n1` (stereo not drawn) [Example 122], the “Nauc @ 3 μM” value is recorded as “+++ (NAUC “+++” refers to an observed NAUC >170% of positive control)” and the “Nauc @ 10 μM” value is given as “+ (NAUC “+” refers to an observed NAUC <140% of positive control)”.
In the same order, the values of `COc1c(Cl)cc(N2C(=O)C3C4CC5(CC5)CN4C4(C(=O)Nc5c(Cl)cc(Cl)cc54)C3C2=O)cc1Cl` (single isomer, unassigned) [Example 197] are “+++ (NAUC “+++” refers to an observed NAUC >170% of positive control)” and “+++ (NAUC “+++” refers to an observed NAUC >170% of positive control)”.
As for `N#Cc1ccccc1CC1NC2(C(=O)Nc3c(Cl)cc(Cl)cc32)C2C(=O)N(c3cc(Cl)cc(Cl)c3)C(=O)C12` (stereo not drawn) [Example 186], the “Nauc @ 3 μM” value is “+ (NAUC “+” refers to an observed NAUC <140% of positive control)” and the “Nauc @ 10 μM” value is listed as “+++ (NAUC “+++” refers to an observed NAUC >170% of positive control)”.
On the same counts, the results for `O=C1C2C3CCCN3C3(C(=O)Nc4ccc(Cl)cc43)C2C(=O)N1c1cc(Cl)cc(Cl)c1` (stereo not drawn) [Example 85] are “++ (NAUC “++” refers to an observed NAUC 170-140% of positive control)” and “+++ (NAUC “+++” refers to an observed NAUC >170% of positive control)”.
On the same counts, the results for `O=C1C2C(Cc3c[nH]c4ccccc34)NC3(C(=O)Nc4c(Cl)cc(Cl)cc43)C2C(=O)N1c1cc(Cl)cc(Cl)c1` (stereo not drawn) [Example 155] are “++ (NAUC “++” refers to an observed NAUC 170-140% of positive control)” and “+ (NAUC “+” refers to an observed NAUC <140% of positive control)”.
In the same order, the values of `COc1cccc(N2C(=O)C3C4CCCN4C4(C(=O)Nc5c(Cl)cc(Cl)cc54)C3C2=O)c1` (stereo not drawn) [Example 97] are “+ (NAUC “+” refers to an observed NAUC <140% of positive control)” and “++ (NAUC “++” refers to an observed NAUC 170-140% of positive control)”.
Turning to `O=C1C2C3CC(C(F)F)CN3C3(C(=O)Nc4c(Cl)cc(Cl)cc43)C2C(=O)N1c1cc(F)cc(Cl)c1` (stereo not drawn) [Example 133], the “Nauc @ 3 μM” value is reported as “++ (NAUC “++” refers to an observed NAUC 170-140% of positive control)” and the “Nauc @ 10 μM” value is given as “++ (NAUC “++” refers to an observed NAUC 170-140% of positive control)”.
For the compound `C[C@]1(O)CC2C3C(=O)N(c4cccc(F)n4)C(=O)C3C3(C(=O)Nc4c(Cl)cc(Cl)cc43)N2C1` (stereo partly drawn) [Example 233], the “Nauc @ 3 μM” value is on record as “+++ (NAUC “+++” refers to an observed NAUC >170% of positive control)” and the “Nauc @ 10 μM” value is reported as “++ (NAUC “++” refers to an observed NAUC 170-140% of positive control)”.
On the same counts, the results for `COc1c(Cl)cc(N2C(=O)C3C4CCCN4C4(C(=O)Nc5c(Cl)cc(Cl)cc54)C3C2=O)cc1Cl` (stereo not drawn) [Example 77] are “+++ (NAUC “+++” refers to an observed NAUC >170% of positive control)” and “+++ (NAUC “+++” refers to an observed NAUC >170% of positive control)”.
On the same counts, the results for `COc1cccc(N2C(=O)C3C4C[C@H](Cl)CN4C4(C(=O)Nc5c(Cl)cc(Cl)cc54)C3C2=O)c1` (stereo partly drawn) [Example 113] are “+ (NAUC “+” refers to an observed NAUC <140% of positive control)” and “++ (NAUC “++” refers to an observed NAUC 170-140% of positive control)”.
On the same counts, the results for `COc1cc(Cl)cc(N2C(=O)C3C4C[C@H](Cl)CN4C4(C(=O)Nc5c(Cl)cc(Cl)cc54)C3C2=O)c1` (stereo partly drawn) [Example 76] are “+++ (NAUC “+++” refers to an observed NAUC >170% of positive control)” and “+++ (NAUC “+++” refers to an observed NAUC >170% of positive control)”.
Turning to `NC(=O)c1cccc(N2C(=O)C3C4CCCN4C4(C(=O)Nc5c(Cl)cc(Cl)cc54)C3C2=O)c1` (stereo not drawn) [Example 19], the “Nauc @ 3 μM” value is recorded as “+ (NAUC “+” refers to an observed NAUC <140% of positive control)” and the “Nauc @ 10 μM” value is “++ (NAUC “++” refers to an observed NAUC 170-140% of positive control)”.
In the same order, the values of `C[C@]1(F)CC2C3C(=O)N(c4cc(Cl)cc(Cl)c4)C(=O)C3C3(C(=O)Nc4c(Cl)cc(Cl)cc43)N2C1` (stereo partly drawn) [Example 204] are “+ (NAUC “+” refers to an observed NAUC <140% of positive control)” and “+++ (NAUC “+++” refers to an observed NAUC >170% of positive control)”.
On the same counts, the results for `O=C1C2C3CC(F)(F)CN3C3(C(=O)Nc4c(Cl)cc(Cl)cc43)C2C(=O)N1c1cc(Cl)cc(Cl)c1` (single isomer, unassigned) [Example 180] are “++ (NAUC “++” refers to an observed NAUC 170-140% of positive control)” and “+ (NAUC “+” refers to an observed NAUC <140% of positive control)”.
Turning to `COc1cc(Cl)cc(N2C(=O)C3C4C[C@H](F)CN4C4(C(=O)Nc5c(Cl)cc(Cl)cc54)C3C2=O)c1` (single isomer, unassigned) [Example 110], the “Nauc @ 3 μM” value is listed as “+++ (NAUC “+++” refers to an observed NAUC >170% of positive control)” and the “Nauc @ 10 μM” value is on record as “+++ (NAUC “+++” refers to an observed NAUC >170% of positive control)”.
`[2H]C12C(=O)N(c3cc(Cl)cc(Cl)c3)C(=O)C1([2H])C1(C(=O)Nc3c(Cl)cc(Cl)cc31)N1CCCC12` (single isomer, unassigned) [Example 70]: the “Nauc @ 3 μM” value was “+++ (NAUC “+++” refers to an observed NAUC >170% of positive control)” and the “Nauc @ 10 μM” value was “+++ (NAUC “+++” refers to an observed NAUC >170% of positive control)”.
As for `O=C1C2C(C(=O)N1c1cc(Cl)cc(Cl)c1)C(c1ccc(F)nc1)N1CCCC21` (stereo not drawn) [Example 9, 2-(3,5-Dichlorophenyl)-4-(6-fluoropyridin-3-yl)hexahydropyrrolo[3,4-a]pyrrolizine-1,3(2H,4H)-dione], the “Nauc @ 3 μM” value is on record as “+ (NAUC “+” refers to an observed NAUC <140% of positive control)” and the “Nauc @ 10 μM” value is “++ (NAUC “++” refers to an observed NAUC 170-140% of positive control)”.
On the same counts, the results for `O=C1C2C(Cc3cccc(O)c3)NC3(C(=O)Nc4c(Cl)cc(Cl)cc43)C2C(=O)N1c1cc(Cl)cc(Cl)c1` (stereo not drawn) [Example 202] are “+ (NAUC “+” refers to an observed NAUC <140% of positive control)” and “++ (NAUC “++” refers to an observed NAUC 170-140% of positive control)”.
On the same counts, the results for `O=C1C2C3C[C@H](O)CN3C3(C(=O)Nc4ccc(C(F)(F)F)cc43)C2C(=O)N1c1cc(Cl)cc(Cl)c1` (single isomer, unassigned) [Example 50] are “++ (NAUC “++” refers to an observed NAUC 170-140% of positive control)” and “+ (NAUC “+” refers to an observed NAUC <140% of positive control)”.
On the same counts, the results for `CC(O)C1NC2(C(=O)Nc3c(Cl)cc(Cl)cc32)C2C(=O)N(c3cc(Cl)cc(Cl)c3)C(=O)C12` (stereo not drawn) [Example 166] are “++ (NAUC “++” refers to an observed NAUC 170-140% of positive control)” and “++ (NAUC “++” refers to an observed NAUC 170-140% of positive control)”.

Source of the values: patent publication US10072017B2, “Compounds and methods for the treatment of cystic fibrosis” (Flatley Discovery Lab, LLC, priority 2015, dated 2018).
